Measurements published in US5068412A, “(2R,3S,4S)-α-(carboxycyclopropyl)glycine” (Suntory Limited, priority 1988, dated 1991).
Where two headings read alike, the source gives them in different places.

Assays:
[1] = test system: motoneurones of isolated newborn rat spinal cord (NMDA type receptor); test: depolarizing activity test, isolated newborn rat spinal cord (potential changes in motoneurones recorded from ventral root); conditions: for minimal effective concentration: read-out: Minimum effective concentration; for activity in the presence of 2-APV or Mg++: measured in the presence of 2APV or Mg++; for Minimum effective concentration, relative activity: relative to L-Glu = 1; for type of activity: spinal cord of a rat; for depolarizing activity, times as potent as L-glutamic acid: rat spinal cord, relative to L-glutamic acid
Method: The methods used for the electrophysiological experiment in the isolated newborn rat spiral cord were essentially similar to those described by Ohtsuka et al. (Nature, 252, 733-734, 1974). The potential changes generated in the motoneurones induced by L-glutamate analogues, namely, (2R,3S,4S)-α-(carboxycyclopropyl)glycine (1) of this invention and one of the stereoisomers, (2S,3R,4S)-α-(carboxycyclopropyl)-glycine (2) were recorded extracellularly from the ventral root with a suction electrode.

[2] = test system: motoneurones of isolated newborn rat spinal cord (NMDA type receptor); conditions: newborn rat spinal cord preparation; from Japanese Patent Application No. 129626/88; cited from earlier work
[3] = Fowden et al., Phytochemistry, 8, 437, 1969; cited from earlier work
[4] = isolated newborn rat spinal cord, depolarization recorded extracellularly from ventral root

N[C@H](C(=O)O)[C@@H]1C[C@@H]1C(=O)O [(2), (2S,3R,4S)-α-(carboxycyclopropyl)glycine]
minimal effective concentration [1, 4]: 1 µM
activity in the presence of 2-APV or Mg++ [1]: activity disappeared
Minimum effective concentration, relative activity [1]: 100
type of activity [1]: potent NMDA-type depolarization
depolarizing activity, times more potent than L-glutamate [2]: about 100 times

N[C@H](C(=O)O)[C@H]1C[C@H]1C(=O)O [(2S,3S,4R)-α-(carboxycyclopropyl)glycine]
effects caused [3]: hypoglycemia and amesis

N[C@H](C(=O)O)[C@H]1C[C@@H]1C(=O)O [(2S,3S,4S)-α-(carboxycyclopropyl)glycine]
effects caused [3]: hypoglycemia and amesis

N[C@@H](C(=O)O)[C@H]1C[C@@H]1C(=O)O [Compound (1), (2R,3S,4S)-α-(carboxycyclopropyl)glycine]
minimal effective concentration [1, 4]: 0.3 µM
activity in the presence of 2-APV or Mg++ [1]: activity disappears
depolarizing activity, times as potent as L-glutamic acid [1]: 300 times
depolarizing activity, times as potent as L-glutamic acid ([1]; listed as (2R,3S,4S)-α-(carboxycyclopropyl)glycine): more than 300 times
Minimum effective concentration, relative activity [1]: 300
depolarizing activity compared with NMDA ([1]; relative to NMDA): much more potent than NMDA
depolarizing activity, times as potent as compound (2) ([1]; relative to compound (2)): 3 times
type of activity [1]: N-methyl-D-aspartic acid (NMDA) like activity

N[C@@H](CCC(=O)O)C(=O)O [L-Glu, L-glutamic acid]
minimal effective concentration ([1]; Rattus norvegicus): 100 µM
Minimum effective concentration, relative activity [1]: 1
